From publication PMC9837035 (Nature Communications, 2023) come the findings set out here.

Broadly, the solubility is the concentration that dissolves in the medium under given conditions. For orientation: Papp A→B means how fast a substance crosses the layer from the apical side. As a reminder, the Papp B→A is the apparent permeability from the basolateral to the apical side of a cell layer. For orientation: IC50 means the concentration needed to halve the response being measured.

One data set concerns H3K9me2 in HUDEP-2 cells. Put plainly: Western blotting of H3K9me2 in HUDEP-2 cells. The format is cell-based, human. Conditions: HUDEP-2, 4 days. The procedure:
Preparation of cell lysates and western blotting were performed as described previously. Protein from cells lysates in lysis buffer (50 mM Tris-HCl (pH 7.5), 150 mM NaCl, 5 mM EDTA, 0.1% NP-40, 1 mM dithiothreitol) were separated by sodium dodecyl sulfate–polyacrylamide gel electrophoresis (SDS-PAGE) and transferred to a polyvinylidene difluoride (PVDF) membrane (Millipore) by electroblotting. The membranes incubated with primary antibodies overnight at 4 °C and secondary antibodies for 1 h at room temperature. The immune complexes were detected with the Immobilon Western Chemiluminescent HRP Substrate (Millipore). Luminescence was analyzed on a FUSION SOLO S (Vilber). Western blot bands were visualized using Evolution Capt software (M&S Instruments Inc.). Primary antibodies used were anti-G9a (1:1000, CST, #3306), anti–α-tubulin (1:5000, Abcam, ab18251), anti-H3K9me2 (1:3000, Abcam, ab1220), anti-H3 (1:5000, Abcam, ab1791), anti-H3K27me3 (1:3000, Sigma, 07-449), anti-GLP (1:1000, CST, #35005), anti-FLAG (100 ng/ml, Fujifilm, 01422383), anti-His (1:5000, MBL, PM032), anti-BCL11A (1:1000, abcam, ab19487), anti-ZBTB7A (1:1000, CST, #50565), anti-CHD3 (1:1000, Novus Biologicals, NB100-60412), and anti-CHD4 (1:1000, abcam, ab240640). Uncropped scans of all of the blots are available in Source Data file.

The nature of another data set: Aqueous solubility. Conditions: for solubility at 1 h: phosphate buffer. Format: physicochemical. Also noted: Solubility in PBS (pH = 7.4): unit: uM. The procedure:
The direct UV kinetic solution method was performed in duplicate. A 10 mM DMSO solution of compound was added to a microtube containing aqueous pH 7.4 or pH 6.8 phosphate buffer solution (maximum concentration: 200 μM). The solution mixture was vigorously shaken at ambient temperature for 1 h. The precipitate was removed by centrifugal separation, and the UV absorbance of the supernatant and the standard solution prepared by the test compound for calibration were measured in duplicate using a 96-well UV plate reader, SPECTRA MAX190 (Molecular Devices).

A short description of data set [1]: Caco-2 permeability assay. The format is in vitro ADME. Conditions: human.
A further data set has as its system Caco-2. Put plainly: Caco-2 permeability assay. The format is in vitro ADME. Conditions: replicate values.
The target in a further data set is DNMT1 (Homo sapiens, UniProt P26358). Put plainly: biochemical.
Sequence of DNMT1 (P26358 whole entry): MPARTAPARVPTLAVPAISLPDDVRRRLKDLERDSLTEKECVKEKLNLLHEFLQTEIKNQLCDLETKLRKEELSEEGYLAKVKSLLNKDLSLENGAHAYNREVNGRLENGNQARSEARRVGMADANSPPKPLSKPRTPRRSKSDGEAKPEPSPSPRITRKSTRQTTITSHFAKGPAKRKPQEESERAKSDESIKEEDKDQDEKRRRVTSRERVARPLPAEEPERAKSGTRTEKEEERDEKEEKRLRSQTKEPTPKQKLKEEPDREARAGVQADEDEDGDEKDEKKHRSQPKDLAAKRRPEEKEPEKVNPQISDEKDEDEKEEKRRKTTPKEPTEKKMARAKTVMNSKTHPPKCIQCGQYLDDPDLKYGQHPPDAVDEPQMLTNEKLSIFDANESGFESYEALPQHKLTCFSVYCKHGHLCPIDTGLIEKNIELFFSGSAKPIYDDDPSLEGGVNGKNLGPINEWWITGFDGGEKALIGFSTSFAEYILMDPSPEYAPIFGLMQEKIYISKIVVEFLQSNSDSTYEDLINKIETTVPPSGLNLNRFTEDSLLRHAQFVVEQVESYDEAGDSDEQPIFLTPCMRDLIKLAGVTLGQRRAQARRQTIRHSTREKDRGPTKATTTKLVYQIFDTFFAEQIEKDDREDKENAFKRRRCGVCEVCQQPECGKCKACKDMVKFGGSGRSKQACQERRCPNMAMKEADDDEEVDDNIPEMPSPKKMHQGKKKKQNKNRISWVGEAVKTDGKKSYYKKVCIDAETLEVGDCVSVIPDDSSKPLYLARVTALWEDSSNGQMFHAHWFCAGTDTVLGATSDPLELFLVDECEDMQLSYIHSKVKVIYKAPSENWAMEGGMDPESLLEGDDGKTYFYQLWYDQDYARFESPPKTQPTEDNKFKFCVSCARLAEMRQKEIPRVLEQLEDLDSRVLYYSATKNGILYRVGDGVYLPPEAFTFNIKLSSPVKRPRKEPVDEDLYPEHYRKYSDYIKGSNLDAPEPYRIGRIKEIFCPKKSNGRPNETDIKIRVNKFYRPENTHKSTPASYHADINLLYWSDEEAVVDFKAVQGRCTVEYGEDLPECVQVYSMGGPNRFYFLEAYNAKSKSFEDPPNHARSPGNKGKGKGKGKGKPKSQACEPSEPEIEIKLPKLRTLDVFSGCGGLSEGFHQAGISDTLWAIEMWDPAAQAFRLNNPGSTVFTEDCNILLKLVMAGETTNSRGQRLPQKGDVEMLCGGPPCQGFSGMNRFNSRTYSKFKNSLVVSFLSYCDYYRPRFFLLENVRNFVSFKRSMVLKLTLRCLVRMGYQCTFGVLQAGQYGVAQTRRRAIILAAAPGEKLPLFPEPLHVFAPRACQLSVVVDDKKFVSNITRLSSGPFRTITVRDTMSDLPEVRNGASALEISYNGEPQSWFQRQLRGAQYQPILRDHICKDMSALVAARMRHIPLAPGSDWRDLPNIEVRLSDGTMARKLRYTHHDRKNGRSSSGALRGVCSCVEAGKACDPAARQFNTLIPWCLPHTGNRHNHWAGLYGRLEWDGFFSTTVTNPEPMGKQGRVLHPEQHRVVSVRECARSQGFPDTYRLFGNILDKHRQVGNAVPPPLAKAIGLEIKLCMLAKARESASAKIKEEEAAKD
For a further data set, the target named is PRMT8 (Homo sapiens, UniProt Q9NR22). Put plainly: biochemical.
Sequence of PRMT8 (Q9NR22 whole entry): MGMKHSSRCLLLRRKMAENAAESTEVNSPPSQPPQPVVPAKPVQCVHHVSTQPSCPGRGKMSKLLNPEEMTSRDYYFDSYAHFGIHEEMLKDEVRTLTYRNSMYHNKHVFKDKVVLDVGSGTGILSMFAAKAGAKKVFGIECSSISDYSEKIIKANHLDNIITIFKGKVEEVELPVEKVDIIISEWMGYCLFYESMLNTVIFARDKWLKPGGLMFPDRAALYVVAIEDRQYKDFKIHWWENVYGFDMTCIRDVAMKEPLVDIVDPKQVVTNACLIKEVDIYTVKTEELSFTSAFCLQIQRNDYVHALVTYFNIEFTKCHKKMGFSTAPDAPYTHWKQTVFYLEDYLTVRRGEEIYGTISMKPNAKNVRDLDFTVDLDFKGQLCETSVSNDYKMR
The next data set addresses T1, G9a (Homo sapiens, UniProt Q96KQ7).
T1 sequence (Q96KQ7 1-1210): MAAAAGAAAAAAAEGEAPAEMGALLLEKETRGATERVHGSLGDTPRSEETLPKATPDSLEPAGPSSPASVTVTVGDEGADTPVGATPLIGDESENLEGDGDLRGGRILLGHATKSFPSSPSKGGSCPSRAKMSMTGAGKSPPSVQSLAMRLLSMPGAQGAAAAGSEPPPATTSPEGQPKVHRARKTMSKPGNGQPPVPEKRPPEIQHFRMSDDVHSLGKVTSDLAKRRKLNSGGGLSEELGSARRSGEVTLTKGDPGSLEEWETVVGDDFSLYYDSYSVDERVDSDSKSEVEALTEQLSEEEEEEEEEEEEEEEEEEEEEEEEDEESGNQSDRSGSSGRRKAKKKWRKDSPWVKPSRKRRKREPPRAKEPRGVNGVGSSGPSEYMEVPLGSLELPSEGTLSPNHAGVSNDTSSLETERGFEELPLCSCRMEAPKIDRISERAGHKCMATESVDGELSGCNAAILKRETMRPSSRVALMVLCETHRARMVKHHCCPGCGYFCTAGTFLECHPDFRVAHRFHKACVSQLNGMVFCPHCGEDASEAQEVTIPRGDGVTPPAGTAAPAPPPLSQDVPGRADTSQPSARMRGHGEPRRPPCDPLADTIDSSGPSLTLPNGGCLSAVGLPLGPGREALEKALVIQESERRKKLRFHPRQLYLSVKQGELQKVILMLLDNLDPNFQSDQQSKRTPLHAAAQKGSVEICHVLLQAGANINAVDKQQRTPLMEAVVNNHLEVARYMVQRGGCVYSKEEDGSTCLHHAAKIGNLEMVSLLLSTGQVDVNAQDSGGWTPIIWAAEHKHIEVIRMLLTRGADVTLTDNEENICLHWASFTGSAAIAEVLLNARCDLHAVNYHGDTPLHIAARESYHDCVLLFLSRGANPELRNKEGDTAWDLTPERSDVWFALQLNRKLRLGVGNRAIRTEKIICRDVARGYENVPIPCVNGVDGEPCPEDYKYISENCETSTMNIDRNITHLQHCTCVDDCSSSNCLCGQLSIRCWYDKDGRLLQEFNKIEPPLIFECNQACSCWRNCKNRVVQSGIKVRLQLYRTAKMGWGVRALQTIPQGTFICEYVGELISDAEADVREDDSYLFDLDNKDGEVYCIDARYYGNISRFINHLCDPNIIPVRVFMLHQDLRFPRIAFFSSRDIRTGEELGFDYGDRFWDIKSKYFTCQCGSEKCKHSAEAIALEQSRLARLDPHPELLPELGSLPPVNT
Put plainly: Kinetic analysis by ALPHA (IC50 vs H3 peptide or SAM). The format is biochemical. More on the design: purchased BPS Bioscience. Conditions: for IC50: 3 replicates. The procedure: Kinetic analysis was measured by ALPHA. […] ALPHA profile was analyzed using Origin (OriginLab).

In data set [2] the target is MLL2. Put plainly: Radioisotope-based methyltransferase assay (selectivity). Conditions: MLL2, 1 μM SAM.
Sequence of MLL2 (O14686 5319-5537): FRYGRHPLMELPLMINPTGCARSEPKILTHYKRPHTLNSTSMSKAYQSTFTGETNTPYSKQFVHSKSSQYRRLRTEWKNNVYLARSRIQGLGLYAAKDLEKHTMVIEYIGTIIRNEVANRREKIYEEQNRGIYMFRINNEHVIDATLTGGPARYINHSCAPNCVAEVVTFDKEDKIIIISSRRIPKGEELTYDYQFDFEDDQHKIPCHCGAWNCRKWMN
Sequence of MLL2 (Q9C005 whole entry, further chain): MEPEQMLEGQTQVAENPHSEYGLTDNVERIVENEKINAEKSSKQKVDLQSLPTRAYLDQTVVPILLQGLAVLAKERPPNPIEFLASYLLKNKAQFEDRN
Sequence of MLL2 (Q15291 whole entry, further chain): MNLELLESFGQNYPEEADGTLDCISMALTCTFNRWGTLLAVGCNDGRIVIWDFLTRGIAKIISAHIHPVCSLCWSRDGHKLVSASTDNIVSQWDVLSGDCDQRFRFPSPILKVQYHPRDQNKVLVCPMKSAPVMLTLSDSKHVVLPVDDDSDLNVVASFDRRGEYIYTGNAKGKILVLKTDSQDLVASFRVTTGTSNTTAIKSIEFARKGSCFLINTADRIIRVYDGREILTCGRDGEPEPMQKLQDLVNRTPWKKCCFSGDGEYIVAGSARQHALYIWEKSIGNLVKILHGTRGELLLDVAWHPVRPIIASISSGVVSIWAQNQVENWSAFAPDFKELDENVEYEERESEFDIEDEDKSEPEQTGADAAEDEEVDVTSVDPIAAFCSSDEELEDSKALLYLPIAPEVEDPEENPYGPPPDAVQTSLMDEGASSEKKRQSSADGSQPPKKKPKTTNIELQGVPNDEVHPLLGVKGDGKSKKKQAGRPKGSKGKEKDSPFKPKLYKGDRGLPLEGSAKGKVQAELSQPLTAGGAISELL
Sequence of MLL2 (Q9UBL3 whole entry, further chain): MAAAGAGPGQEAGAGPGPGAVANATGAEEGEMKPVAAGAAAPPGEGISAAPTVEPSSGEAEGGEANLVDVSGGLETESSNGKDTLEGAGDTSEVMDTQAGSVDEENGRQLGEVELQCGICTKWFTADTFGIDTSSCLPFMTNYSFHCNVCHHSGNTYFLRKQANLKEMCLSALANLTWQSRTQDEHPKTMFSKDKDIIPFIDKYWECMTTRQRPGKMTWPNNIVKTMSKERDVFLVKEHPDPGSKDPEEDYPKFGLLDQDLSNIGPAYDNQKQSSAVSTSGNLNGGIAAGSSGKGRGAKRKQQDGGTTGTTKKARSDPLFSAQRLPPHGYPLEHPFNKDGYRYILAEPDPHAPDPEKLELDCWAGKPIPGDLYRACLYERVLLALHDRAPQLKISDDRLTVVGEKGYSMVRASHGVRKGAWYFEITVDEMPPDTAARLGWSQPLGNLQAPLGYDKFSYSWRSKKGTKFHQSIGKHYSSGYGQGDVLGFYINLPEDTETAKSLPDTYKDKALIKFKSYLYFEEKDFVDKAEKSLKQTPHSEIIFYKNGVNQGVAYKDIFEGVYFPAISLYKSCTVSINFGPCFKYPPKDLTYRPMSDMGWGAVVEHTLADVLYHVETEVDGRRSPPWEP
For data set [3], the target named is MLL2 (Homo sapiens, UniProt O14686). Described as above. Conditions: MLL2, 1 μM SAM.
Sequence of MLL2 (Homo sapiens, UniProt O14686) (O14686 5319-5537): as the sequence (O14686 5319-5537) above
Sequence of MLL2 (Homo sapiens, UniProt O14686) (Q9C005 whole entry, further chain): as the sequence (Q9C005 whole entry, further chain) above
Sequence of MLL2 (Homo sapiens, UniProt O14686) (Q15291 whole entry, further chain): as the sequence (Q15291 whole entry, further chain) above
Sequence of MLL2 (Homo sapiens, UniProt O14686) (Q9UBL3 whole entry, further chain): as the sequence (Q9UBL3 whole entry, further chain) above

Values after ≈ are worked out from the molar mass of the structure shown. Values joined by “and” are separate entries in the source; they are usually repeats but may differ in a detail not shown here. Identical values can stand only once. Like-named read-outs stand apart in the source and are kept apart here.

For the molecule `Cc1c(C(=O)NC(CCC2CC2)C(=O)Nc2ccc(C#N)cc2)[nH]c2c1C(=O)CC(C)(C)C2` (centres unmarked) [RK-701], the “cellular H3K9me2 levels” value in the data set with H3K9me2 in HUDEP-2 cells is “dose-dependent reduction”. For the same molecule, the “Solubility in PBS (pH = 6.8)” value in “Aqueous solubility” (PBS pH = 6.8, replicate values) is 31.5 and 23.5 and 26.4. In addition, the “Solubility in PBS (pH = 7.4)” value in “Aqueous solubility” (PBS pH = 7.4, replicate values) was 10.4542 and 12.4313 and 11.5534 and 10.9261 and 15.3115 and 10.1928 and 7.42 and 8.729. The solubility at 1 h in “Aqueous solubility” (pH 6.8, PBS pH = 6.8, replicate values, read-out: Solubility in PBS (pH = 6.8)) amounted to 23.9 µM (≈ 10.7 µg/mL); in “Aqueous solubility” (pH 6.8, pH6.8, read-out: Solubility in PBS), 26.3 ± 3.2 µM (≈ 11.7 µg/mL); in “Aqueous solubility” (pH 7.4, pH7.4, read-out: Solubility in PBS), 10.9 ± 2.2 µM (≈ 4.87 µg/mL). Moreover, the Papp A→B was determined as 4.8 ×10⁻⁶ cm/s in [1] (Caco-2, A to B, replicate values, read-out: Papp A to B) and 5.23 ± 0.47 ×10⁻⁶ cm/s in data set [1] (Caco-2, Apical to Basal, read-out: Caco-2 permeability Papp A to B). Moreover, the Papp B→A in data set [1] (Caco-2, B to A, replicate values, read-out: Papp B to A) came to 19.5 ×10⁻⁶ cm/s; in [1] (Caco-2, Basal to Apical, read-out: Caco-2 permeability Papp B to A), 18.9 ± 0.92 ×10⁻⁶ cm/s. Moreover, the “Papp A to B” value in the data set on Caco-2 (A to B) is 5.724 and 5.177. Moreover, the “Papp B to A” value in the data set on Caco-2 (B to A) is 17.8638 and 19.3603. Also, the IC50 on DNMT1 was greater than 100000 nM; at PRMT8, greater than 100000 nM; against G9a (H3(1-21)-biotin 6.25 nM), 9.85 nM and 9.46 nM and 8.82 nM; on G9a (H3(1-21)-biotin 12.5 nM) it was 8.26 nM and 13.4 nM and 10.5 nM; against G9a (H3(1-21)-biotin 25 nM) it was 11.7 nM and 18.2 nM and 17.3 nM; at G9a (H3(1-21)-biotin 50 nM) it was 20.2 nM and 32.1 nM and 26.2 nM. Also, the concentration for half-maximal inhibition (IC50) against G9a (H3(1-21)-biotin 100 nM) is 34.8 nM and 34.6 nM and 31.4 nM; at G9a (SAM 0.47 µM), 154 nM and 149 nM and 150 nM; on G9a (SAM 0.94 µM) it was 65.3 nM and 98.6 nM and 43.1 nM; at G9a (SAM 1.88 µM), 30.6 nM and 57.4 nM and 24.3 nM; against G9a (SAM 3.75 µM), 23.5 nM and 39.6 nM and 21.1 nM; at G9a (SAM 7.5 µM) it was 27.8 nM and 38.9 nM and 11.8 nM. In addition, the concentration for half-maximal inhibition (IC50) was 25 nM and 37.5 nM and 12.8 nM against G9a (SAM 15 µM); greater than 100000 nM at MLL2 [2]. Moreover, at G9a, the “mode of inhibition, SAM” value was “uncompetitive inhibition with respect to SAM”. Besides, at G9a, the “mode of inhibition, histone H3 peptide” value was “histone H3 substrate-competitive inhibitor”.
`Nc1ncnc2c1ncn2[C@@H]1O[C@H](CSCC[C@H](N)C(=O)O)[C@@H](O)[C@H]1O` [SAH, S-(5'-Adenosyl)-L-homocysteine, reference compound]: the midpoint of inhibition against MLL2 [3], the IC50, lay at 11600 nM.
